Test results reported in ChEMBL document CHEMBL2016439, “Antitumor activity of annonaceous acetogenins in HepS and S180 xenografts bearing mice” (Bioorg Med Chem Lett, 2012).
Active and inactive are the calls of the source. No cut-off for these calls is given here.

Assays:
[1] = Antitumor activity against mouse HepS cells allografted in Kunming mouse assessed as tumor growth inhibition at 60 ug/kg, ip qd administered 24 hrs post challenge for 10 days; assay type: functional; conditions: read-out: GI
[2] = tested on: CCRF S-180; test: Antitumor activity against mouse S180 cells allografted in ip dosed Kunming mouse assessed as tumor growth inhibition administered qd 24 hrs post challenge for 10 days; assay type: functional, organism-based
[3] = tested on: CCRF S-180; test: Antitumor activity against mouse S180 cells allografted in Kunming mouse assessed as tumor growth inhibition at 60 ug/kg, ip qd administered 24 hrs post challenge for 10 days; assay type: functional; conditions: CCRF S-180, ip, read-out: GI
[4] = Antitumor activity against mouse HepS cells allografted in Kunming mouse assessed as tumor growth inhibition at 15 ug/kg, ip qd administered 24 hrs post challenge for 10 days; assay type: functional; conditions: read-out: GI
[5] = tested on: CCRF S-180; test: Antitumor activity against mouse S180 cells allografted in Kunming mouse assessed as tumor growth inhibition at 15 ug/kg, ip qd administered 24 hrs post challenge for 10 days; assay type: functional; conditions: CCRF S-180, ip, read-out: GI
[6] = tested on: HepS; test: Antitumor activity against mouse HepS cells allografted in ip dosed Kunming mouse assessed as tumor growth inhibition administered qd 24 hrs post challenge for 10 days; assay type: functional, organism-based
[7] = tested on: Mus musculus; test: Toxicity in Kunming mouse allografted with mouse S180 cells assessed as adverse effects at 60 ug/kg, ip qd administered 24 hrs post challenge for 10 days; assay type: organism-based, CCRF S-180; conditions: in vivo, 0.06 mg/kg
[8] = tested on: Mus musculus; test: Toxicity in Kunming mouse allografted with mouse HepS cells assessed as adverse effects at 60 ug/kg, ip qd administered 24 hrs post challenge for 10 days; assay type: organism-based; conditions: in vivo, 0.06 mg/kg
[9] = tested on: HepS; test: Antitumor activity against mouse HepS cells allografted in Kunming mouse assessed as improved spleen index at 40 ug/kg, ip qd administered 24 hrs post challenge for 10 days; assay type: functional, organism-based
[10] = tested on: CCRF S-180; test: Antitumor activity against mouse S180 cells allografted in Kunming mouse assessed as improved spleen index at 40 ug/kg, ip qd administered 24 hrs post challenge for 10 days; assay type: functional, organism-based
[11] = tested on: CCRF S-180; test: Antitumor activity against mouse S180 cells allografted in Kunming mouse assessed as tumor growth inhibition at 40 ug/kg, ip qd administered 24 hrs post challenge for 10 days; assay type: functional; conditions: CCRF S-180, ip, read-out: GI
[12] = Antitumor activity against mouse HepS cells allografted in Kunming mouse assessed as tumor growth inhibition at 40 ug/kg, ip qd administered 24 hrs post challenge for 10 days; assay type: functional; conditions: read-out: GI

Compound	inhibition in vivo at 0.06 mg/kg [1] [%]	growth inhibition (GI) [2]	inhibition in vivo at 0.06 mg/kg [3] [%]	inhibition in vivo at 0.015 mg/kg [4] [%]	inhibition in vivo at 0.015 mg/kg [5] [%]	growth inhibition (GI) [6]	Activity [7]	Activity [8]	Activity [9]	Activity [10]	inhibition in vivo at 0.04 mg/kg [11] [%]	inhibition in vivo at 0.04 mg/kg [12] [%]
CCCCCCCCCCCC[C@@H](O)[C@H]1CC[C@H]([C@H](O)CCCCCC(O)CCCCCCC2=C[C@H](C)OC2=O)O1 (some centres undefined)	67.3	Dose-dependent effect	48.3	61.5	43.9	Dose-dependent effect	–	–	–	–	–	–
CCCCCCCCCC[C@H](O)[C@H]1CC[C@H]([C@H]2CC[C@H]([C@H](O)CCCCCCCCCCCCC3=C[C@H](C)OC3=O)O2)O1 [BULLANIN]	70.9	Dose-dependent effect	63.9	32.5	42.3	Dose-dependent effect	–	–	–	–	–	–
CCCCCCCCCC[C@@H](O)[C@@H]1CC[C@@H]([C@@H]2CC[C@@H]([C@H](O)CCCCCCCCCC(O)CC3=CC(C)OC3=O)O2)O1 (some centres undefined) [BULLATACIN]	–	Dose-dependent effect	–	63.4	65.8	Dose-dependent effect	–	–	–	–	–	–
CCCCCCCCCC[C@H](O)[C@H]1CC[C@H]([C@H]2CC[C@H]([C@H](O)CCCCCCCCCC[C@@H](O)CC3=C[C@H](C)OC3=O)O2)O1 [BULLATACIN]	–	–	–	–	–	–	Toxic	Toxic	–	–	–	–
CC(=O)O[C@H]1C(=O)[C@@]2(C)[C@H]([C@H](OC(=O)c3ccccc3)[C@]3(O)C[C@H](OC(=O)[C@H](O)[C@@H](NC(=O)c4ccccc4)c4ccccc4)C(C)=C1C3(C)C)[C@]1(OC(C)=O)CO[C@@H]1C[C@@H]2O [PACLITAXEL]	–	–	–	–	–	–	–	–	Active	Active	48.9	62.2
CCCCCC[C@H](O)CCC[C@H](O)[C@H]1CC[C@H]([C@H](O)CC[C@H](O)[C@@H]2CC[C@@H](CCCCCCCCCC3=C[C@H](C)OC3=O)O2)O1 [SQUAMOSTATIN A]	31.2	Dose-dependent effect	54.2	15	52.7	Dose-dependent effect	–	–	–	–	–	–
CCCCCCCCCC[C@@H](O)[C@@H]1CC[C@@H]([C@H](O)CC[C@@H](O)[C@@H]2CC[C@@H](CCCCCCCCCC3=C[C@H](C)OC3=O)O2)O1 [SQUAMOSTATIN E]	51.3	Dose-dependent effect	51.1	34.2	27.2	Dose-dependent effect	–	–	–	–	–	–
